The results in this text go back to patent US10364256B2 (GlaxoSmithKline Intellectual Property Development Limited, priority 2015, dated 2019).

A value given as a limit tells only on which side of the number the result lay.

The target in assay [1] is T1, Keap1 Kelch domain (321-609) / TAMRA-labeled 16mer NRF2 peptide (ETGE motif) (Homo sapiens, UniProt Q14145).
T1 construct: the Kelch domain (321-609) of Keap1 is used
Nature of the assay: NRF2-Keap1 FP Assay (Keap1 Kelch fluorescence polarization). Format: binding. The following applies: 20 nM Keap1 (321-609), 8 nM Tamra labeled peptide. The method in brief:
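Compound dilutions (3-fold) were incubated 1 hr at room temperature with 20 nM Keap1 Kelch (321-609) and 8 nM TAMRA-labeled ETGE 16mer peptide. Buffer was 50 mM Tris pH 8.0, 100 mM NaCl, 5 mM MgCl2, 1 mM DTT, 2 mM CHAPS, 0.005% BSA. Fluorescence polarization (mP) was normalized to controls and fitted with a four-parameter equation to give pIC50.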
Background: Polarisation of emitted light reports the rotation of a fluorescent probe.

In assay [2] the target is T2, full length Keap1 protein / full length NRF2 protein (Homo sapiens, UniProt Q14145).
T2 construct: full length NRF2 protein and full length Keap1 protein (Keap1 exists a dimer) are used; His
T2 sequence (Q14145 whole entry): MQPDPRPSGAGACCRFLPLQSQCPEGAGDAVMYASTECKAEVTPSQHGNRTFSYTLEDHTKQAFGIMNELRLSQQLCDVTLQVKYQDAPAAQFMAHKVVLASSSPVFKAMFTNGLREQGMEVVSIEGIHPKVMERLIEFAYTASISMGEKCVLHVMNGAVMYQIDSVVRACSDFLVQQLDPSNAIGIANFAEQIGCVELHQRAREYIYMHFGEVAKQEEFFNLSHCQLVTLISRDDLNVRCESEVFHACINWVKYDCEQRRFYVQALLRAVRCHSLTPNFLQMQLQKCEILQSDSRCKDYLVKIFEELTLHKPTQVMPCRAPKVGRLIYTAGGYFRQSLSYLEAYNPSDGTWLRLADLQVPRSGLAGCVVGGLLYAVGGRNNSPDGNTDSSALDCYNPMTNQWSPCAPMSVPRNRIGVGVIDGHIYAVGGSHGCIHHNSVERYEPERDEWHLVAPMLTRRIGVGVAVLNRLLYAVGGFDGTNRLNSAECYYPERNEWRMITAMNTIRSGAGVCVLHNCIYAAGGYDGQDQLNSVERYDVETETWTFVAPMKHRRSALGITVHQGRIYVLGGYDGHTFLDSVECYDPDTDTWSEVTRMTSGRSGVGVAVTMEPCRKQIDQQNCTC
Nature of the assay: NRF2-Keap1 TR-FRET Low Protein Assay. Format: binding. The following applies: 1.25 nM Keap1 FlagHis and 2.5 nM biotin-NRF2 added. The method in brief: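 Flag-tagged full-length Keap1 was preincubated with compound (3-fold series) for 2.25 h at 37 °C in Tris pH 8.0/MgCl2/NaCl/BSA/DTT/CHAPS. Biotin-Avi-NRF2 (added at 2.5 nM) was then bound for 1.25 h at 4 °C. Eu-streptavidin/anti-Flag-APC TR-FRET (665/615 nm) was read after 1 h at RT, and pIC50 came from a four-parameter fit.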
A general note: Time-resolved FRET reads energy transfer from a long-lived donor to a nearby acceptor.

T1 sequence (Q14145 321-609): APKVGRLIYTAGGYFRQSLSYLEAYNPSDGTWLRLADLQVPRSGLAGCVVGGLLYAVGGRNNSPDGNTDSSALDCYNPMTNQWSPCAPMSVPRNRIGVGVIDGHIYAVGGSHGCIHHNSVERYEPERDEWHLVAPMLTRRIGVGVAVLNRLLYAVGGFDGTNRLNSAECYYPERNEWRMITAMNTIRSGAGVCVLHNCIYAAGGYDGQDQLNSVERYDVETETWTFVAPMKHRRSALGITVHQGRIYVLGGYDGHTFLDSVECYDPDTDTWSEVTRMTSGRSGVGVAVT

Consider `CC1CC(C)CN(C(=O)c2cccc(-c3cccc(-n4ncc(C(=O)O)c4[C@@H]4C[C@H]4c4cn(C)nn4)c3)c2F)C1` (mixture of isomers) [Example 263, 1-(3′-(3,5-Dimethylpiperidine-1-carbonyl)-2′-fluoro-[1,1′-biphenyl]-3-yl)-5-(2-(1-methyl-1H-1,2,3-triazol-4-yl)cyclopropyl)-1H-pyrazole-4-carboxylic Acid], for which the IC50 (in general, the concentration that gives 50% inhibition) in assay [1] is 10 to 100 nM; in assay [2], under 10 nM.

With `Cn1cc([C@H]2C[C@@H]2c2c(C(=O)O)cnn2-c2cccc(-c3cccc(C(=O)N4CCCCC4)c3F)c2)nn1` (racemic) [Example 258, 1-(2′-Fluoro-3′-(piperidine-1-carbonyl)-[1,1′-biphenyl]-3-yl)-5-(trans-2-(1-methyl-1H-1,2,3-triazol-4-yl)cyclopropyl)-1H-pyrazole-4-carboxylic Acid], the IC50 in assay [1] is 10 to 100 nM; in assay [2], under 10 nM.

As for `C[C@@H]1CCC[C@H](C)N1C(=O)c1cccc(-c2cccc(-n3ncc(C(=O)O)c3[C@H]3C[C@@H]3c3cn(C)nn3)c2)c1F` (single isomer, unassigned) [Example 261], the IC50 in assay [1] was 10 to 100 nM; in assay [2], under 10 nM.

Take “1-(3′-((2-chlorocyclohexyl)methoxy)-[1,1′-biphenyl]-3-yl)-5-((1,2-trans)-2-(1-methyl-1H-1,2,3-triazol-4-yl)cyclopropyl)-1H-pyrazole-4-carboxylic acid [Example 186]”: the IC50 in assay [1] lay within 100 to 1000 nM; in assay [2], 10 to 100 nM.

In the case of `C[C@@H]1CCC[C@H](C)N1C(=O)c1cccc(-c2cccc(-n3ncc(C(=O)O)c3[C@@H]3C[C@H]3c3cn(C)nn3)c2)c1F` (single isomer, unassigned) [Example 262], the IC50 in assay [1] is 10 to 100 nM; in assay [2], under 10 nM.

For the compound `O=C(O)c1cnn(-c2cccc(-c3cccc(C(=O)N(CC4CC4)CC4CC4)c3F)c2)c1C1CC1` [Example 8, 1-(3-{3-[Bis(cyclopropylmethyl)carbamoyl]-2-fluorophenyl}phenyl)-5-cyclopropyl-1H-pyrazole-4-carboxylic Acid], the IC50 in assay [1] and in assay [2] was 10 to 100 nM throughout.

As to `O=C(O)c1cnn(-c2cccc(-c3cccc(C(=O)N4CCCC5(CCCC5)C4)c3F)c2)c1C1CC1` [Example 35, 1-[3-(3-{7-Azaspiro[4.5]decane-7-carbonyl}-2-fluorophenyl)phenyl]-5-cyclopropyl-1H-pyrazole-4-carboxylic Acid], the IC50 in assay [1] and in assay [2] was 10 to 100 nM throughout.

Regarding `CCC[C@@H]1CCCCN1C(=O)c1cccc(-c2cccc(-n3ncc(C(=O)O)c3CCc3cn(C)nn3)c2)c1F` [Example 55, (R)-1-(2′-Fluoro-3′-(2-propylpiperidine-1-carbonyl)-[1,1′-biphenyl]-3-yl)-5-(2-(1-methyl-1H-1,2,3-triazol-4-yl)ethyl)-1H-pyrazole-4-carboxylic Acid], the IC50 in assay [1] and in assay [2] was 10 to 100 nM throughout.

Take `C[C@@H]1CN(Cc2cccc(-c3cccc(-n4ncc(C(=O)O)c4[C@@H]4C[C@H]4c4cn(C)nn4)c3)c2)Cc2ccccc2O1` [Example 253]: the IC50 in assay [1] is 10 to 100 nM; in assay [2], under 10 nM.

Consider `Cn1cc([C@H]2C[C@@H]2c2c(C(=O)O)cnn2-c2cccc(-c3cccc(C(=O)N4CCCCCC4)c3F)c2)nn1` (racemic) [Example 260, 1-(2′-Fluoro-3′-(azepane-1-carbonyl)-[1,1′-biphenyl]-3-yl)-5-(trans-2-(1-methyl-1H-1,2,3-triazol-4-yl)cyclopropyl)-1H-pyrazole-4-carboxylic Acid], for which the IC50 in assay [1] is 10 to 100 nM; in assay [2], under 10 nM.
